Data as given in article PMC9281569, “Two HCN4 Channels Play Functional Roles in the Zebrafish Heart” (Frontiers in Physiology, 2022).
Values joined by “and” are separate entries in the source; they are usually repeats but may differ in a detail not shown here. Identical values can stand only once. Counter-ions that a name gives are not always drawn. Like-named read-outs stand apart in the source and are kept apart here.

Legend:
[1] = system: developing zebrafish embryos; test: HCN inhibitors in egg water: heart rate of developing zebrafish embryos; conditions: for Effect on heart rate, concentration dependence: 10 μM, 100 μM, 24 h and 48 h; for Effect on heart rate, concentration dependence / Heart rate recovery after washout: 1 mM; for Heart rate recovery after washout: 6 h after washout; for Pericardial edema in inhibitor-treated zebrafish: zebrafish embryos treated with inhibitor
DrHCN4L = target: T1, DrHCN4L (Danio rerio, UniProt A0A8N7TEJ3); test: Inhibition of HCN4 currents in Xenopus oocytes, two-electrode voltage clamp; format: cell-based, zebrafish (Danio rerio); conditions: holding −30 mV, hyperpolarized to −120 mV for 2 s, room temperature
T1 sequence (A0A8N7TEJ3 1-1188): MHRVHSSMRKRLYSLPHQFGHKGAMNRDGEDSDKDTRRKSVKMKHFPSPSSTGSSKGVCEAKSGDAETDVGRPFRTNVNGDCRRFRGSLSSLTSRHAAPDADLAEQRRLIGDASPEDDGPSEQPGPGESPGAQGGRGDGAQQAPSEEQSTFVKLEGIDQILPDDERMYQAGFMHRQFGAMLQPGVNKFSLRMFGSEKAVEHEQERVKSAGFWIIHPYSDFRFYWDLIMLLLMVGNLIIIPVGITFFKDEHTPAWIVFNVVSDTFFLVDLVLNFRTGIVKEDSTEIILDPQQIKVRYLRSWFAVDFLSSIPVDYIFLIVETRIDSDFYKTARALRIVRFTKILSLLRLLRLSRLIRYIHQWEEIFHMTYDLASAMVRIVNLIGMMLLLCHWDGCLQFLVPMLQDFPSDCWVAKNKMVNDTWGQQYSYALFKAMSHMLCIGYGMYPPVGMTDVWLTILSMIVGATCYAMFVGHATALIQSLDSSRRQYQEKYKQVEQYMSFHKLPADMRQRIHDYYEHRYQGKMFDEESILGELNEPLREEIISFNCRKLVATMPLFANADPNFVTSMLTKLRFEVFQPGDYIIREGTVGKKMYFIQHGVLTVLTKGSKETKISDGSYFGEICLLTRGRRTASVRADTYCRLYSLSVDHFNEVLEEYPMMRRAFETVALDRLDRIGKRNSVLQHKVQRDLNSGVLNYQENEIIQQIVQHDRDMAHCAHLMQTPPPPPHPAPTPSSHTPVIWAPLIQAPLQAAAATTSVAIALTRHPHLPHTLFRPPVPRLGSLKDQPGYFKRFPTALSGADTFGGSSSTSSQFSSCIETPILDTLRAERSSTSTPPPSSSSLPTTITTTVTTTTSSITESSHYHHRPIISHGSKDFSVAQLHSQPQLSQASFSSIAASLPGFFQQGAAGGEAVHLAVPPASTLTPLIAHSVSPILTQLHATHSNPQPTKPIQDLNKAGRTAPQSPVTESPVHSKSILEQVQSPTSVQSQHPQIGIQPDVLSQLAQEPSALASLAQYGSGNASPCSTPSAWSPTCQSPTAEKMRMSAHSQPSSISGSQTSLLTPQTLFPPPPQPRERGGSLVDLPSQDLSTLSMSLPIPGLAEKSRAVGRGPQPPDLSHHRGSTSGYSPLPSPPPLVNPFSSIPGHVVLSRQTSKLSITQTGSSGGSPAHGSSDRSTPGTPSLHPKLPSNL

[2] = system: Isolated adult zebrafish heart; set-up: method as in Stoyek et al., 2022; conditions: bath application; ref Stoyek et al., 2022; cited from earlier work
patients = system: patients; set-up: method as in Swedberg et al., 2010; conditions: administration to patients; ref Swedberg et al., 2010; cited from earlier work
[3] = 0 h (24 hpf), before application of inhibitor, 10 μM group
[4] = 0 h (24 hpf), before application of inhibitor, 100 μM group
[5] = 0 h (24 hpf), before application of inhibitor, 1 mM group
[6] = 24 h after application, 10 μM in egg water
[7] = 24 h after application, 100 μM in egg water
[8] = 24 h after application, 1 mM in egg water
[9] = 48 h after application, 10 μM in egg water
[10] = 48 h after application, 100 μM in egg water
[11] = 48 h after application, 1 mM in egg water
[12] = Washout, 6 h in inhibitor-free water after 48 h, 10 μM group
[13] = Washout, 6 h in inhibitor-free water after 48 h, 100 μM group
[14] = Washout, 6 h in inhibitor-free water after 48 h, 1 mM group
[15] = DrHCN4L in Xenopus oocytes, read-out: IC50

`CCN(c1ccccc1)c1cc(=NC)n(C)c(C)n1.Cl` [ZD7288] showed a Heart rate [1, 3] of 81 ± 4 bpm, a Heart rate [1, 4] of 80 ± 3 bpm and a Heart rate [1, 5] of 84 ± 3 bpm. For the same compound, the “Effect on heart rate, concentration dependence” value [1] was “significantly lowered heart rate, except for a concentration of 10 μM at 24 h”, the “Heart rate recovery after washout” value [1] was “recovered” and the Heart rate [1, 6] was 150 ± 3 bpm. It also gave a Heart rate [1, 7] of 129 ± 1 bpm, a Heart rate [1, 8] of 113 ± 3 bpm and a Heart rate [1, 9] of 142 ± 2 bpm. For the same compound, the Heart rate [1, 10] was 97 ± 4 bpm, the Heart rate [1, 11] was 94 ± 2 bpm and the Heart rate [1, 12] was 160 ± 3 bpm. For the same compound, the Heart rate [1, 13] was 140 ± 4 bpm, the Heart rate [1, 14] was 115 ± 2 bpm and the “Pericardial edema in inhibitor-treated zebrafish” value [1] was “no pericardial edema was observed”. It also gave an IC50 (DrHCN4L; [15]) of 596 ± 383 µM.
For `[Cl-].[Cs+]` [Cesium ion, Cesium chloride], the “Block of isolated adult zebrafish heart” value [2] is listed as 73%, the Heart rate [1, 5] is listed as 89 ± 1 bpm and the Heart rate [1, 8] is listed as 131 ± 2 bpm. It also gave a Heart rate [1, 11] of 133 ± 2 bpm, a Heart rate [1, 14] of 139 ± 3 bpm and an IC50 (DrHCN4L; DrHCN4L in Xenopus oocytes, listed as Cs^+, read-out: IC50) of 48 ± 7 µM. For the same compound, the IC50 (DrHCN4L; [15]) was 48.3 ± 6.9 µM.
For `COc1cc2c(cc1OC)CC(=O)N(CCCN(C)C[C@H]1Cc3cc(OC)c(OC)cc31)CC2` [Ivabradine, ivabradine hydrochloride], the “Block of isolated adult zebrafish heart” value [2] is given as 86%, the “Reduction of heart rate” value (patients) is given as “about 20%” and the Heart rate [1, 3] is given as 81 ± 3 bpm. The Heart rate [1, 4] was 81 ± 2 bpm, the Heart rate [1, 5] was 85 ± 2 bpm and the “Effect on heart rate, concentration dependence” value [1] was “significantly suppressed heart rate at all concentrations and time points”. The “Heart rate recovery after washout” value [1] was “recovered”, the Heart rate [1, 6] was 134 ± 4 bpm and the Heart rate [1, 7] was 124 ± 5 bpm. It also gave a Heart rate [1, 8] of 98 ± 2 bpm, a Heart rate [1, 9] of 133 ± 2 bpm and a Heart rate [1, 10] of 101 ± 2 bpm. For the same compound, the Heart rate [1, 11] was 72 ± 2 bpm, the Heart rate [1, 12] was 149 ± 3 bpm and the Heart rate [1, 13] was 133 ± 3 bpm. The Heart rate [1, 14] was 115 ± 3 bpm, the “Pericardial edema in inhibitor-treated zebrafish” value [1] was “no pericardial edema was observed” and the IC50 (DrHCN4L; IC50, DrHCN4L in Xenopus oocytes) was 10 µM and 10.4 µM.
